In US11413301B2, “Composition comprising sea cucumber extract as effective ingredient for preventing and treating Bruch's membrane dysfunction-related disease” (priority 2016, dated 2022):

Key:
human Bruch's membrane = assay: Hydraulic conductivity of isolated Bruch's membrane (open-type Ussing chamber, fluid transport under hydrostatic pressure)
Procedure: First, to confirm the waste transport ability, the hydraulic conductivity of the Bruch's membrane isolated from a donated eye was measured. The isolated Bruch's membrane was mounted in an open-type Ussing chamber to measure a quantitative change in fluid under hydrostatic pressure and calculate a change in hydraulic conductivity (FIGS. 5B and 5C). […] The data of FIG. 5D is expressed using a semi-log plot with the logarithmic scale on the y-axis to convert exponential decay to a linear plot. To maintain the function of photoreceptor cells, the Bruch's membrane requires a minimal hydraulic conductivity function, which represents a failure line. […] All of the hydraulic conductivities measured for the peripheral regions of the 11 macular degeneration patients may be observed to be below the mean regression line (refer to the black circle and the red line in FIG. 5E), showing that, in the peripheral region, rather than the macular region, the decrease in the material transport function progresses to a serious condition. […]
In addition, to investigate the improvement of the transport function of the Bruch's membrane according to the dose of the sea cucumber extract, Bruch's membranes isolated from the eyes of four donors ranging from 69 to 84 years of age were measured, a dose response curve for the improvement of hydraulic conductivity was expressed. […]

[1] = tested on: MMP enzyme secreted from a human Bruch's membrane; assay: MMP secretion from Bruch's membrane incubated with Frondoside A (zymography); details: Frondoside A 167 μg/mL, 30 hours
Procedure: Zymography was performed using the solution incubated for 30 hours in the measurement of hydraulic conductivity in Example 10. Specifically, a Bruch's membrane was incubated with a Tris buffer solution as a control or a Frondoside A solution (167 μg/mL) for 30 hours, 50 μL of the resulting solution was mixed with 50 μL of the SDS sample buffer, and then 30 μL of the resulting mixture was loaded on a gel to measure an MMP enzyme secreted from a human Bruch's membrane.

[2] = tested on: lipids of Bruch's membrane; assay: Lipid removal from Bruch's membrane by Frondoside A (lipid extracted from membrane, TLC); set-up: species or system human; details: Frondoside A 167 μg/mL, membrane after hydraulic conductivity measurement
Procedure: To confirm the lipid removal effect of Frondoside A, after the measurement of hydraulic conductivity in Example 10, the Bruch's membrane was cut into a piece having a diameter of 6 mm, and then a lipid was extracted using a CM solution (chloroform:methanol=2:1), followed by evaporating the solvent. After 50 μL of a CM solution was added thereto again, 40 μL of the resulting solution was dropped on a silica gel TLC plate, and the type and amount of the lipid were analyzed.

COC1C(O)C(CO)OC(OC2C(O)COC(OC3C(C)OC(OC4C(O[C@H]5CC[C@]6(C)C7CCC89C(=O)O[C@@](C)(CCCC(C)C)[C@H]8[C@@H](OC(C)=O)C[C@@]9(C)C7=CC[C@H]6C5(C)C)OCC(OS(=O)(=O)[O-])C4O)C(OC4OCC(O)C(O)C4O)C3O)C2O)C1O.[Na+] (stereo partly shown) [Frondoside A]
effect on the improvement of hydraulic conductivity relative to the control (human Bruch's membrane; Frondoside A 167 μg/mL, control Tris buffer): ≥ 1.6 fold | hydraulic conductivity Fold-change Mean ± SD (n) (human Bruch's membrane; Frondoside A 167 μg/ml): 1.65 ± 0.2 (3) Fold-change | secretion of Pro-MMP9 bound to the membrane [1]: an enormous amount of Pro-MMP9 bound to the membrane was secreted | removal of Ch from the Bruch's membrane [2]: did not have an effect | removal of ChE from the Bruch's membrane [2]: did not have an effect | removal of TG from the Bruch's membrane [2]: did not have an effect | removal of phosphatidylcholine from the Bruch's membrane [2]: had an effect of removing phosphatidylcholine
